Series [1] deals with T1, human 5-HT2BR (Homo sapiens, UniProt P41595). Particulars: commercially available compounds known to bind 5-HT2BR; ref Roth et al., 2000; read-out: 5-HT2BR (nM), Table S3; cited from earlier work.
In series [2] the target is T2, human 5-HT2AR (Homo sapiens, UniProt P28223). Conditions: read-out: 5-HT2AR (nM), Table S3, cited from earlier work.
The subject of another series is scn1lab mutant zebrafish. The series is described as follows: locomotion (mean swim velocity) seizure-like behaviour assay in scn1lab mutant zebrafish larvae. It is filed as in vivo, Danio rerio. Conditions: for effect on seizure-like swim behaviour, commercially available compounds: three concentrations, 30 and 90 min exposure; for change in vivo at 100 µM / change in vivo at 250 µM: Danio rerio. On the procedure:
(§1) For locomotion studies, zebrafish larvae (5 days post-fertilization) were placed into a single well of a clear flat-bottomed 96-well microplate containing embryo media. Sex determination is not possible at this stage of development. All drug screening experiments were conducted in an unbiased manner by investigators blinded to the test compounds and all files coded for post hoc analysis. The 96-well plate containing larvae was then placed inside a DanioVision box where they were allowed to acclimate (20 min; room temperature). EthoVision XT software (DanioVision, Noldus Information Technology) was used to obtain locomotion plots (10 min in duration). Seizure scoring was performed, as described ([Baraban et al., 2005]). All locomotion plots were analysed for distance travelled (in millimetres) and mean velocity (in millimetres per second). After 90 min of drug exposure larvae were examined for toxic side-effects. Compounds that decreased or stopped the larva heartbeat, or reduced or eliminated the escape response when touched, were considered toxic.
For behaviour analysis, the threshold for a change in mean swim velocity ≥40% is considered significant (>1.5× SD of 250 control treated scn1lab). Unless otherwise indicated, all data in this manuscript are presented as the mean ± standard error of the mean. […] Statistically significant differences are indicated with asterisks (*P < 0.05; **P < 0.01; ***P < 0.001). […]

The target of series [3] is T3, human 5-HT2CR (Homo sapiens, UniProt P28335).
T3 sequence (P28335 33-458): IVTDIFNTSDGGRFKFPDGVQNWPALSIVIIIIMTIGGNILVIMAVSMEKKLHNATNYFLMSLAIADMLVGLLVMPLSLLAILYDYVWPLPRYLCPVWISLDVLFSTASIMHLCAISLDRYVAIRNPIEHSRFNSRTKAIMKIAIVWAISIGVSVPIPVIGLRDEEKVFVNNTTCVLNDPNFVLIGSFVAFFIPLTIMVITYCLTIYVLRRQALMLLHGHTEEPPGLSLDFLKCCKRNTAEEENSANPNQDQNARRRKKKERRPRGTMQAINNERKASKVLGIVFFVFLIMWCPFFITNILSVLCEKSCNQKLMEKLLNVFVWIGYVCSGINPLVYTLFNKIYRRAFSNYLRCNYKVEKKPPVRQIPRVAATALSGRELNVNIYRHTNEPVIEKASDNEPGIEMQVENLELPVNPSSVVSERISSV

Series [4] has as its system scn1lab mutant zebrafish larvae. As to the kind of experiment: toxicity check of larvae after 90 min drug exposure (heartbeat, escape response). Conditions: 90 min exposure. It is filed as in vivo, Danio rerio. The method, then:
as §1, with “Seizure scoring was performed, as described ([Baraban et al., 2005]).” left out

In series [5] the target is T1, human 5-HT2BR. The series is described as follows: radioligand binding (NIMH PDSP). Particulars: read-out: Ki 5-HT2BR. On the procedure:
(§2) All in vitro binding assay and Ki data studies were performed by the US National Institute of Mental Health Psychoactive Drug Screening Program (NIMH PDSP). For these studies, drugs were screened against recombinant, stably expressed human 5-HT2AR, 5-HT2BR, 5-HT2CR and H1, as described at https://pdspdb.unc.edu/pdspWeb/ ([Besnard et al., 2012]).

Series [6] concerns the target T3, human 5-HT2CR. As to the kind of experiment: radioligand binding (NIMH PDSP). On the procedure: as §2
In another series the target is human H1 (Homo sapiens, UniProt P35367). The series is described as follows: radioligand binding (NIMH PDSP). Conditions: read-out: Ki H1. The method, then: as §2
In series [7] the target is T2, human 5-HT2AR. As to the kind of experiment: radioligand binding (NIMH PDSP). On the procedure: as §2
The mark [8] stands for this setting: commercially available compounds known to bind 5-HT2BR, ref Roth et al., 2000.
[9] abbreviates: commercially available compounds known to bind 5-HT2BR; ref Roth et al., 2000; read-out: 5-HT2CR (nM), Table S3; cited from earlier work.
[10] abbreviates: read-out: 5-HT2CR (nM), Table S3; commercially available compounds known to bind 5-HT2BR; ref Roth et al., 2000; cited from earlier work.
Where [11] appears, read: read-out: % change in velocity, individual larva 1 (heat map).
Setting [12] is: read-out: % change in velocity, individual larva 2 (heat map).
[13] abbreviates: read-out: % change in velocity, individual larva 3 (heat map).
Setting [14] is: read-out: % change in velocity, individual larva 4 (heat map).
Where [15] appears, read: read-out: % change in velocity, individual larva 5 (heat map).
Where [16] appears, read: read-out: % change in velocity, individual larva 6 (heat map).
[17] abbreviates: read-out: mean velocity change from six fish, Trial 1.
[18] abbreviates: read-out: mean velocity change from six fish, Trial 2.

Like-named read-outs stand apart in the source and are kept apart here.

T2 sequence (P28223 whole entry): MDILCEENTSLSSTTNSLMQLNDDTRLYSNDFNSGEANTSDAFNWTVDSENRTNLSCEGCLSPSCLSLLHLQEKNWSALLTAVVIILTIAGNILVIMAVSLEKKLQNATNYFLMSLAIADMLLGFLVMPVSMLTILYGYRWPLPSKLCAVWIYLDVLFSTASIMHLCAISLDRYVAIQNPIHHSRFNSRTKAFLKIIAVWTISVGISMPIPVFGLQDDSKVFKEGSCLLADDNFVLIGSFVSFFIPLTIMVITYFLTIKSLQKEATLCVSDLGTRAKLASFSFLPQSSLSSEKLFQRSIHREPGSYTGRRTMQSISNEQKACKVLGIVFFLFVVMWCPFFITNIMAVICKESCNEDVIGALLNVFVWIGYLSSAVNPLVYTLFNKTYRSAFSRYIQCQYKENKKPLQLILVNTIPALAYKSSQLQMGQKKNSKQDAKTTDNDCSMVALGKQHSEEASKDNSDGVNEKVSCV
T1 sequence (P41595 whole entry): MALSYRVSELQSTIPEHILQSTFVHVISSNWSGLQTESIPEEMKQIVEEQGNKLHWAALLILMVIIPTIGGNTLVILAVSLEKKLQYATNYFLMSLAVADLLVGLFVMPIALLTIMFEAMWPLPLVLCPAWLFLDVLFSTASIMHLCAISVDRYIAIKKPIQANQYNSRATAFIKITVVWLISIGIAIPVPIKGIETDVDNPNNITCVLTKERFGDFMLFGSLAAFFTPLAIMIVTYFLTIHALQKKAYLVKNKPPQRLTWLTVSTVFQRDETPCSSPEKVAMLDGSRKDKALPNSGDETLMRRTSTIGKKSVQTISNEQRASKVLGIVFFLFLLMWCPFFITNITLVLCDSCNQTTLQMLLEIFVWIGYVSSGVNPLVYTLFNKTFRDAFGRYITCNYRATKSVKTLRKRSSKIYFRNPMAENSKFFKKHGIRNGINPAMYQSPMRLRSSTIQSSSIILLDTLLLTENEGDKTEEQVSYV
Chain of human H1 (P35367 whole entry): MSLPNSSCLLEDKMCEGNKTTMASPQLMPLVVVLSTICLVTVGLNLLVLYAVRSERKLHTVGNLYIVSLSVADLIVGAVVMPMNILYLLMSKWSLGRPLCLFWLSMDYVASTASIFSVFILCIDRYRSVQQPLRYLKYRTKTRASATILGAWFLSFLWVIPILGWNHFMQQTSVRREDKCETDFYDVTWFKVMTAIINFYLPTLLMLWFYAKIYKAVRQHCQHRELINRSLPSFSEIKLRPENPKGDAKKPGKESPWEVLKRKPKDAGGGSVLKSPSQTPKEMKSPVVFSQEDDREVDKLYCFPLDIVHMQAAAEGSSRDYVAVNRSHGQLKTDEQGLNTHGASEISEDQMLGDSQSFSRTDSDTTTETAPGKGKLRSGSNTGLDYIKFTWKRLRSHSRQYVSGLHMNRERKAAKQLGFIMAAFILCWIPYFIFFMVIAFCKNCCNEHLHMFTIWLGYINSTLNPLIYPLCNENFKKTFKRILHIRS

Take `Clc1cccc(COc2cncc(N3CCNCC3)n2)c1` [CP-809,101]: the Ki at human 5-HT2BR [1] is 6 nM; on human 5-HT2AR [2] (setting [8]), 1.6 nM; at human 5-HT2CR [3] (setting [9]), 64 nM. Further, the “effect on seizure-like swim behaviour, commercially available compounds” value (from here on “effect … commercially available compounds”) in the series on scn1lab mutant zebrafish was “biphasic response”.
In the case of `C[C@H](N)Cn1ccc2cc(F)c(Cl)cc21` [Ro 60-0175], the figures for the Ki at human 5-HT2BR [1], on human 5-HT2AR [2] and at human 5-HT2CR [3] (setting [9]) were 4.3 nM, 37.2 nM and 9.1 nM, respectively. For the same compound, the “effect … commercially available compounds” value in the series on scn1lab mutant zebrafish is “borderline effective”.
Take `c1cnc(N2CCN(Cc3ccc4c(c3)OCO4)CC2)nc1` [piribedil, Piribedil, reference compound]: the Ki at human 5-HT2AR [2] (setting [8]) and at human 5-HT2CR [3] (setting [10]) was greater than 10000 nM each time. Moreover, the “toxicity at 100 µM” value in series [4] (100 µM) is listed as “toxicity”. Also, the “toxicity at 250 µM” value in series [4] was “toxicity”.
For the compound `Br.CN(C)C1CCc2cc(O)c(O)cc2C1` (stereo not shown) [TL-99], the Ki was 2040 nM at human 5-HT2BR [1], 2340 nM at human 5-HT2AR [2] (setting [8]) and 2290 nM on human 5-HT2CR [3] (setting [9]). The “effect … commercially available compounds” value in the series on scn1lab mutant zebrafish was “failed to elicit any behavioural effect”.
As to `C=CCN1C[C@H](C(=O)N(CCCN(C)C)C(=O)NCC)C[C@@H]2c3cccc4[nH]cc(c34)C[C@H]21` [cabergoline, Cabergoline], the figures for the Ki on human 5-HT2AR [2] (setting [8]) and at human 5-HT2CR [3] (setting [10]) were 6.17 nM and 692 nM, respectively. For the same compound, the “effect on convulsive swim behaviour at 250 µM” value in the series with scn1lab mutant zebrafish (250 µM) is given as “significantly reduced convulsive swim behaviour”.
As for `CCN(CC)Cc1nc2ccccc2n1Cc1ccc(Cl)cc1` [Compound 24], the Ki at human 5-HT2BR [5] was 115 nM; on human 5-HT2CR [6], 1410 nM; at human H1, 3.7 nM; on human 5-HT2AR [7] it was 1260 nM. The change in vivo at 100 µM in the series with scn1lab mutant zebrafish (setting [11]) was 67.6%; in the series on scn1lab mutant zebrafish (setting [12]), 330%; in the series on scn1lab mutant zebrafish (setting [13]), -70.1%; with scn1lab mutant zebrafish (setting [14]) it was -28%; with scn1lab mutant zebrafish (setting [15]) it was -30.1%; in the series on scn1lab mutant zebrafish (setting [16]) it was -3.9%. The change in vivo at 100 µM with scn1lab mutant zebrafish (setting [17]) and in the series on scn1lab mutant zebrafish (setting [18]) was 3.5% in each case. In addition, the change in vivo at 250 µM with scn1lab mutant zebrafish (setting [11]) is -100%; in the series with scn1lab mutant zebrafish (setting [12]) it was -100%; in the series on scn1lab mutant zebrafish (setting [13]), -90%; with scn1lab mutant zebrafish (setting [14]) it was -100%; in the series on scn1lab mutant zebrafish (setting [15]), -100%; in the series with scn1lab mutant zebrafish (setting [16]), -100%. Further, the change in vivo at 250 µM in the series on scn1lab mutant zebrafish (setting [17]) was -98.7%. Besides, in series [4] (100 µM or 250 µM), the “toxicity in initial analogue screening” value is on record as “toxic”.
For the compound `Clc1ccc(Cn2ccnc2CN2CCCC2)cc1` [Compound 9], the Ki is greater than 10000 nM at human 5-HT2BR [5], 447 nM on human 5-HT2CR [6], 29 nM on human H1 and greater than 10000 nM on human 5-HT2AR [7]. Besides, in the series on scn1lab mutant zebrafish (100 µM or 250 µM, UCSF-synthesized compound), the “effect on seizure-like swim behaviour, initial library screen” value is “effective in suppressing”. Also, the change in vivo at 100 µM is -13.5% in the series on scn1lab mutant zebrafish (setting [11]); -0.7% in the series with scn1lab mutant zebrafish (setting [12]); -34.9% with scn1lab mutant zebrafish (setting [13]); -57.3% in the series with scn1lab mutant zebrafish (setting [14]); 34.4% in the series on scn1lab mutant zebrafish (setting [15]); -33.2% with scn1lab mutant zebrafish (setting [16]). Further, the change in vivo at 100 µM with scn1lab mutant zebrafish (setting [17]) and in the series on scn1lab mutant zebrafish (setting [18]) was -28.1% each time. Moreover, the change in vivo at 250 µM in the series on scn1lab mutant zebrafish (setting [11]) is -94%; in the series with scn1lab mutant zebrafish (setting [12]) it was -100%; in the series on scn1lab mutant zebrafish (setting [13]) it was -22.5%; in the series with scn1lab mutant zebrafish (setting [14]), -100%; in the series on scn1lab mutant zebrafish (setting [15]), -38.8%; in the series on scn1lab mutant zebrafish (setting [16]) it was -100%. Further, the change in vivo at 250 µM with scn1lab mutant zebrafish (setting [17]) is -73.2%; in the series with scn1lab mutant zebrafish (setting [18]), -100%. Besides, in series [4], the “toxicity at 250 µM” value is reported as “toxic”.

Source of the values: paper PMC6798786 (Brain Communications, 2019).
